Assay results published in patent US11192889B2, “Tetrahydronaphthyridinepentanamide integrin antagonists” (The Rockefeller University, priority 2016, dated 2021).
Where “and” joins values, the source holds several entries; their conditions need not be identical. Equal entries are not always repeated.

Legend:
HEK-293-αVβ3 cells [1] = biological target: T1, HEK-293-αVβ3 cells (Homo sapiens, UniProt P05106+P06756); assay: αVβ3 Cell Adhesion to Fibrinogen Assay; type: cell-based; set-up: IC50; other: dose reducing by 50% the adhesion of HEK-293-αVβ3 cells to fibrinogen; untreated cells 100% adhesion, 10 mM EDTA 0%; details: for IC50: dose reducing by 50% the adhesion of HEK-293-αVβ3 cells to fibrinogen, separate determinations listed
Excerpt: (§1) HEK-293 Cells Expressing αVβ3. HEK-293 cells were transfected using lipofectamine 2000 (Invitrogen #11668030) with the cDNA for αV using the pEF1/V5-His A vector and the cDNA for β3 using the vector pcDNA3.1. Cells expressing αVβ3 were identified by their reaction with murine monoclonal antibodies (mAbs) LM609 and 7E3, and stable cell lines were established by repetitive sorting using LM609. […] HEK-293-αVβ3 cells for assays are counted in an automated cell counter (ADVIA 120) and adjusted to values appropriate for each assay.
αVβ3 Cell Adhesion to Fibrinogen Assay. Polystyrene 96-well microtiter plates (Costar, 3590) are precoated with 3.5 μg/mL of purified fibrinogen (Enzyme Research Laboratories) in 0.15 M NaCl, 0.01 M Tris/HCL, pH 7.4 for 1 hour at 37° C. The wells are then washed and incubated with HEPES-Buffered Modified Tyrode's solution (HBMT; 0.128 M NaCl, 10 mM HEPES, 12 mM NaHCO3, 0.4 mM NaH2PO4, 2.7 mM KCl, 0.35% bovine serum albumin (Fisher), 0.1% glucose, pH 7.4) for 1 hour at room temperature or overnight at 4° C. Wells are washed with HBMT containing 1 mM Mg2+ and 2 mM Ca2+ and then 50 μL of HEK-293-αVβ3 cells that have been pretreated with the compound to be tested for 20 minutes at room temperature are added to each well at a concentration of 3,000 cells/μL. After 30-32 minutes the wells are washed with HBMT containing Ca2+ and Mg2+ three times and then the adherent cells are lysed and the acid phosphatase activity that is released is measured by: 1. adding phosphatase substrate (Sigma EC 224-246-5) at 2 mg/mL in 0.1 M Na citrate, pH 5.6, 0.1% triton X-100 for 1 hour at room temperature; 2. stopping the reaction by adding 50 μL of 2 M NaOH; and 3. analyzing the samples in a spectrophotometer at 405 nm. In each assay, 10 mM EDTA is used as a positive control and untreated cells are used as a negative control. The IC50 is the dose of test compound that reduces by 50% the adhesion of the HEK-293-αVβ3 cells, taking the results with untreated cells as 100% and the results in the presence of EDTA as 0%. In some instances more than one IC50 determination was made, in which case, results of separate determinations are reported. IC50's were not determined for all compounds in the table; for some of these test compounds the inhibition at specific doses are reported. In some instances, the test compound produced a greater reduction than 10 mM EDTA, and these are shown as negative numbers.

HEK-293-αVβ3 cells [2] = biological target: T1, HEK-293-αVβ3 cells; assay: AP5 Binding Assay; type: cell-based; details: for AP5 expression induced at the highest concentration / activation at 10 µM: @10 μM, relative to AP5 expression induced by cilengitide; for EC50: concentration inducing 50% of the AP5 expression induced by 1 μM cilengitide; for activation at 10 µM: read-out: AP5 expression induced at the highest concentration
Excerpt: as §1
AP5 Binding Assay. HEK-293-αVβ3 cells are harvested using 0.05% trypsin 0.5 mM EDTA, washed with HBMT once, and resuspended in HBMT containing 1 mM Mg2+ and 2 mM Ca2+. The cells are counted and adjusted to 0.5×10^6 cells per sample. The compound to be tested and fluorescently labeled mAb AP5 (either Alexa 488 or Alexa 674; 10 μg/mL) are added and incubated for 30 minutes at 37° C. The cells are then washed and analyzed by flow cytometry (BD FACSCalibur) at the appropriate wavelength for detecting the AP5 fluorophore. In each assay, cilengitide (1 μM) and 10 mM EDTA are included as positive controls and untreated cells are used as the negative control. The concentration of the test compound required to induce the expression of 50% of the AP5 expression induced by cilengitide is calculated and defined as the EC50. The EC50 for cilengitide was determined based on the expression induced by EDTA.

T1 sequence (P05106 whole entry): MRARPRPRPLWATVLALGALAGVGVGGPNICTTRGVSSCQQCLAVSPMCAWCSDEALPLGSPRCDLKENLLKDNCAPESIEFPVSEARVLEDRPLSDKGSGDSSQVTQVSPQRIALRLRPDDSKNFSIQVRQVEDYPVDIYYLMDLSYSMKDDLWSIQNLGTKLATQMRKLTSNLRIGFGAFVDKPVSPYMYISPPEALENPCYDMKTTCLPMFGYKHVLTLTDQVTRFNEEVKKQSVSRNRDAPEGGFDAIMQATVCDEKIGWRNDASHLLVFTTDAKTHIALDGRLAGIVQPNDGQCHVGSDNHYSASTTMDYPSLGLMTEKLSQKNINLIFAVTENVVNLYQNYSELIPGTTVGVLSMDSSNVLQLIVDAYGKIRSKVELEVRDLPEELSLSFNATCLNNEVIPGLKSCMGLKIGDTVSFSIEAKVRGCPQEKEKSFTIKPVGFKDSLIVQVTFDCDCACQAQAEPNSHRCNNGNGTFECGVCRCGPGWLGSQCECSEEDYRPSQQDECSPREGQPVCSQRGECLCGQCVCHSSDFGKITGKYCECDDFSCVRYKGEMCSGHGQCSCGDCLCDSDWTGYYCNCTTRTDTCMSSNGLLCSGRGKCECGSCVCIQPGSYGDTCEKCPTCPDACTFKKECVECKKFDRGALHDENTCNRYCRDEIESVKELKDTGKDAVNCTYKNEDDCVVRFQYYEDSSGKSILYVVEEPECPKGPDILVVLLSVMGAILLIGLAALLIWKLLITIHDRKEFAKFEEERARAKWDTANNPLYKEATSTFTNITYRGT
T1 sequence (P06756 whole entry): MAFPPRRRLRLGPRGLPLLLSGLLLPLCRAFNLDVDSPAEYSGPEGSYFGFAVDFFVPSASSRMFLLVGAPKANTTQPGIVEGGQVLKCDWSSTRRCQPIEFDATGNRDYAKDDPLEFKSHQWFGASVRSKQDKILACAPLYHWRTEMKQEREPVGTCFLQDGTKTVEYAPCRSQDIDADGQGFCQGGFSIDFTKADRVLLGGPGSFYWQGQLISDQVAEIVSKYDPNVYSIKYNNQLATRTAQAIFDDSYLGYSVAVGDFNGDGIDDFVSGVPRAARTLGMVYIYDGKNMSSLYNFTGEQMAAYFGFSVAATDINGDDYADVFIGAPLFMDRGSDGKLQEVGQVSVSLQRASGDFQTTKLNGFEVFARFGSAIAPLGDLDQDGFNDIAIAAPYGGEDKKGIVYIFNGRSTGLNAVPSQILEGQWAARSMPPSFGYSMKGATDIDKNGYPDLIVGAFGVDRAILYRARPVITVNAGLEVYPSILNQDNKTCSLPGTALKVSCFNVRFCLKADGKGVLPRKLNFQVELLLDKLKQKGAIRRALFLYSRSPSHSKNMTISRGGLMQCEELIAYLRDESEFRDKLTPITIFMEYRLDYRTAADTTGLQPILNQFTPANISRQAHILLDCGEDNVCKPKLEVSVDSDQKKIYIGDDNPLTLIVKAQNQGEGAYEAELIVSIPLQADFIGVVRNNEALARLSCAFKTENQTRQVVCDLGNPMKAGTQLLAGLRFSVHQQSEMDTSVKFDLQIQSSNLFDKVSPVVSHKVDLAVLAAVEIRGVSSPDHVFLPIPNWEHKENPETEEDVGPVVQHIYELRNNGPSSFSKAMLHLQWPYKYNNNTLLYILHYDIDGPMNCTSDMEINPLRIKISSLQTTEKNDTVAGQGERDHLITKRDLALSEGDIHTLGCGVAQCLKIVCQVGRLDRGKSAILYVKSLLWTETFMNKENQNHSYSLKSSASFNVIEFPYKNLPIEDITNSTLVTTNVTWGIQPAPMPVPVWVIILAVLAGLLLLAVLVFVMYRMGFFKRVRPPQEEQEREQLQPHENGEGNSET

Row | SMILES | IC50 (HEK-293-αVβ3 cells [1]) | EC50 (HEK-293-αVβ3 cells [2]) [µM] | activation at 10 µM (HEK-293-αVβ3 cells [2]) [%] | other results
1 | O=C(O)CCCNC(=O)CCCCc1ccc2c(n1)NCCC2 [Example 1, 4-[5-(5,6,7,8-tetrahydro-1,8-naphthyridin-2-yl)pentanoylamino]butanoic acid] | 1350 nM | > 100 | – | –
2 | COC(=O)[C@H](CCNC(=O)CCCCc1ccc2c(n1)NCCC2)NC(=O)OCc1ccccc1 [Example 2, Methyl (2S)-2-(benzyloxycarbonylamino)-4-[5-(5,6,7,8-tetrahydro-1,8-naphthyridin-2-yl)pentanoylamino]butanoate] | 286 nM and 1680 nM | > 10 | 19 | –
3 | O=C(CCCCc1ccc2c(n1)NCCC2)NCC[C@H](NC(=O)OCc1ccccc1)C(=O)O [Example 3, (2S)-2-(Benzyloxycarbonylamino)-4-[5-(5,6,7,8-tetrahydro-1,8-naphthyridin-2-yl)pentanoylamino]butanoic acid] | 146 nM and 484 nM and 699 nM and 362 nM and 324 nM and 344 nM | > 10 | 16 | –
4 | O=C(CCCCc1ccc2c(n1)NCCC2)NCC[C@@H](NC(=O)OCc1ccccc1)C(=O)O [Example 4, (2R)-2-(Benzyloxycarbonylamino)-4-[5-(5,6,7,8-tetrahydro-1,8-naphthyridin-2-yl)pentanoylamino]butanoic acid] | 225 nM and 773 nM and 952 nM and 537 nM and 612 nM and 683 nM | > 10 | 5 | –
5 | COC(=O)C(CCNC(=O)CCCCc1ccc2c(n1)NCCC2)NC(=O)OCc1ccccc1 (stereo not drawn) [Example 5, Methyl 2-(benzyloxycarbonylamino)-4-[5-(5,6,7,8-tetrahydro-1,8-naphthyridin-2-yl)pentanoylamino]butanoate] | 2450 nM | > 10 | 23 | –
6 | COC(=O)[C@@H](CCNC(=O)CCCCc1ccc2c(n1)NCCC2)NC(=O)OCc1ccccc1 [Example 6, Methyl (2R)-2-(benzyloxycarbonylamino)-4-[5-(5,6,7,8-tetrahydro-1,8-naphthyridin-2-yl)pentanoylamino]butanoate] | > 10000 nM | – | – | –
7 | O=C(CCCCc1ccc2c(n1)NCCC2)NCCC(NC(=O)OCc1ccccc1)C(=O)O (stereo not drawn) [Example 7, 2-(Benzyloxycarbonylamino)-4-[5-(5,6,7,8-tetrahydro-1,8-naphthyridin-2-yl)pentanoylamino]butanoic acid] | 407 nM and 570 nM and 337 nM and 428 nM | > 10 | 15 | –
8 | COC(=O)C(CCNC(=O)CCCCc1ccc2c(n1)NCCC2)c1ccccc1 (stereo not drawn) [Example 8, Methyl 2-phenyl-4-[5-(5,6,7,8-tetrahydro-1,8-naphthyridin-2-yl)pentanoylamino]butanoate] | > 10000 nM | – | – | –
9 | O=C(CCCCc1ccc2c(n1)NCCC2)NCCC(C(=O)O)c1ccccc1 (stereo not drawn) [Example 9, 2-Phenyl-4-[5-(5,6,7,8-tetrahydro-1,8-naphthyridin-2-yl)pentanoylamino]butanoic acid] | 3720 nM and 1770 nM | > 10 | 11 | –
10 | COC(=O)C(C)CCNC(=O)CCCCc1ccc2c(n1)NCCC2 (stereo not drawn) [Example 10, Methyl 2-methyl-4-[5-(5,6,7,8-tetrahydro-1,8-naphthyridin-2-yl)pentanoylamino]butanoate] | > 10000 nM | – | – | –
11 | COC(=O)C(CCNC(=O)CCCCc1ccc2c(n1)NCCC2)Cc1ccccc1 (stereo not drawn) [Example 11, Methyl 2-benzyl-4-[5-(5,6,7,8-tetrahydro-1,8-naphthyridin-2-yl)pentanoylamino]butanoate] | > 10000 nM | – | – | –
12 | CC(CCNC(=O)CCCCc1ccc2c(n1)NCCC2)C(=O)O (stereo not drawn) [Example 12, 2-Methyl-4-[5-(5,6,7,8-tetrahydro-1,8-naphthyridin-2-yl)pentanoylamino]butanoic acid] | > 10000 nM | – | – | –
13 | O=C(CCCCc1ccc2c(n1)NCCC2)NCCC(Cc1ccccc1)C(=O)O (stereo not drawn) [Example 13, 2-Benzyl-4-[5-(5,6,7,8-tetrahydro-1,8-naphthyridin-2-yl)pentanoylamino]butanoic acid] | > 10000 nM | – | – | –
14 | Cc1ccc(S(=O)(=O)NC(CCNC(=O)CCCCc2ccc3c(n2)NCCC3)C(=O)O)cc1 (stereo not drawn) [Example 14, 2-(p-Tolylsulfonylamino)-4-[5-(5,6,7,8-tetrahydro-1,8-naphthyridin-2-yl)pentanoylamino]butanoic acid] | 6300 nM | > 10 | 7 | –
15 | O=C(CCCCc1ccc2c(n1)NCCC2)NCCC(NC(=O)c1ccccn1)C(=O)O (stereo not drawn) [Example 25] | < 100 nM | > 10 | 16 | –
16 | CC(C)COC(=O)NC(CCNC(=O)CCCCc1ccc2c(n1)NCCC2)C(=O)O (stereo not drawn) [Example 38, 2-(Isobutoxycarbonylamino)-4-[5-(5,6,7,8-tetrahydro-1,8-naphthyridin-2-yl)pentanoylamino]butanoic acid] | 343 nM and 416 nM | > 10 | 20 | –
17 | O=C(CCCCc1ccc2c(n1)NCCC2)NCCC(NS(=O)(=O)c1ccc2ccccc2c1)C(=O)O (stereo not drawn) [Example 45] | – | – | – | inhibition at specific dose 0.1 (HEK-293-αVβ3 cells [1]; dose 0.1 (table in μM), untreated cells 100% adhesion, 10 mM EDTA 0%): 40%
18 | CC(C)[C@H]1C(=O)N[C@@H](CCCN=C(N)N)C(=O)NCC(=O)N[C@@H](CC(=O)O)C(=O)N[C@H](Cc2ccccc2)C(=O)N1C [cilengitide, reference compound] | – | – | – | AP5 expression (HEK-293-αVβ3 cells [2]; 1 μM cilengitide, average±SD of 17 experiments): 42.5±8.0 arbitrary fluorescence units

Now from value to molecule, other results behind:

Row | IC50 (HEK-293-αVβ3 cells [1]) | EC50 (HEK-293-αVβ3 cells [2]) [µM] | activation at 10 µM (HEK-293-αVβ3 cells [2]) [%] | SMILES | other results
19 | 106 nM | > 10 | – | O=C(CCCCc1ccc2c(n1)NCCC2)NCCC(C(=O)O)c1cnc2ccccc2c1 (single isomer, unassigned) [Example 89, 2-(3-quinolyl)-4-[5-(5,6,7,8-tetrahydro-1,8-naphthyridin-2-yl)pentanoylamino]butanoic acid] | AP5 expression induced at the highest concentration (HEK-293-αVβ3 cells [2]): 27%
20 | 228 nM | > 10 | – | O=C(CCCCc1ccc2c(n1)NCCC2)NCCC(C(=O)O)c1cnc2ccccc2c1 (single isomer, unassigned) [Example 90, 2-(3-quinolyl)-4-[5-(5,6,7,8-tetrahydro-1,8-naphthyridin-2-yl)pentanoylamino]butanoic acid] | AP5 expression induced at the highest concentration (HEK-293-αVβ3 cells [2]): 11%
21 | 288 nM | > 10 | – | O=C(CCCCc1ccc2c(n1)NCCC2)NCCC(C(=O)O)n1cnc(-c2ccccc2)n1 (single isomer, unassigned) [Example 93, (S or R)-2-(3-phenyl-1,2,4-triazol-1-yl)-4-[5-(5,6,7,8-tetrahydro-1,8-naphthyridin-2-yl)pentanoylamino]-butanoic acid] | –
22 | 373 nM | – | – | O=C(CCCCc1ccc2c(n1)NCCC2)NCCC(C(=O)O)n1cnc(-c2ccccc2)n1 (single isomer, unassigned) [Example 94, (S or R)-2-(3-phenyl-1,2,4-triazol-1-yl)-4-[5-(5,6,7,8-tetrahydro-1,8-naphthyridin-2-yl)pentanoylamino]butanoic acid] | –
23 | < 100 nM | > 10 | 32 | O=C(CCCCc1ccc2c(n1)NCCC2)NCCC(NC(=O)CO)C(=O)O (stereo not drawn) [Example 34] | –
24 | < 100 nM | > 10 | 12 | COC(=O)NC(CCNC(=O)CCCCc1ccc2c(n1)NCCC2)C(=O)O (stereo not drawn) [Example 36] | –
25 | > 10000 nM | – | – | O=C(CCCCc1ccc2c(n1)NCCC2)NCCC(NS(=O)(=O)c1ccc(Oc2ccccc2)cc1)C(=O)O (stereo not drawn) [Example 48] | –
26 | > 10000 nM | – | – | O=C(CCCCc1ccc2c(n1)NCCC2)NCCC(NC(=O)Nc1ccc(Oc2ccccc2)cc1)C(=O)O (stereo not drawn) [Example 59] | –
